Assay results from patent EP2951180B1, “2,6,7,8 SUBSTITUTED PURINES AS HDM2 INHIBITORS” (Merck Sharp & Dohme Corp., priority 2013, dated 2014).

Target: T1, HDM2 (Homo sapiens, UniProt Q00987)
T1 construct: Thioredoxin (N); made in house; host or cells: E. coli strain BL21(DE3)Rosetta
Assay: HDM2 FRET assay (inhibition of binding of FITC labeled p53-pocket peptide to HDM2)
Settings: Table 11; read-out: FRET IC50
In short: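 TR-FRET with 0.5 nM His-tagged recombinant HDM2, 3 nM FITC-labelled p53 peptide and 0.25 nM Tb-anti-His antibody in PBS, 0.01% BSA, 0.01% Tween-20, 0.1% DMSO. IC50 from em520/em495 ratio over 10-point dilutions, 4-parameter logistic fit.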

T1 sequence (Q00987 17-125): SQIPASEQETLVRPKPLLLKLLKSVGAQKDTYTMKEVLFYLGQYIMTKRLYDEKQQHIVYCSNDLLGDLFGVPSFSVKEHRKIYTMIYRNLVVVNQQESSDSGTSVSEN

`COC(C)(C)C1CCCN1c1nc2nc(-c3noc(=O)[nH]3)nc(N[C@H](C)C3CCC3)c2n1C[C@H]1CC[C@H](C)CC1` (stereo partly drawn) [Example 11.107, 3-(6-{[(1R)-1-cyclobutylethyl]amino}-8-[2-(1-methoxy-1-methylethyl)pyrrolidin-1-yl]-7-[(trans-4-methylcyclohexyl)methyl]-7H-purin-2-yl)-1,2,4-oxadiazol-5(2H)-one] and `C[C@@H](Nc1nc(-c2noc(=O)[nH]2)nc2nc(N3CCC[C@H]3C(F)(F)F)n(C[C@H]3CC[C@H](C)CC3)c12)C1CCC1` [Example 11.128, 3-(6-{[(1R)-1-cyclobutylethyl]amino}-7-[(trans-4-methylcyclohexyl)methyl]-8-[(2S)-2-(trifluoromethyl)pyrrolidin-1-yl]-7H-purin-2-yl)-1,2,4-oxadiazol-5(4H)-one] are within 1.5-fold of each other in IC50: 0.507 nM for the first, 0.642 nM for the second.

Going from `Cc1nonc1C1CCCN1c1nc2nc(-c3noc(=O)[nH]3)nc(N[C@H](C)C3CCC3)c2n1C[C@H]1CC[C@H](C)CC1` (stereo partly drawn) [Example 11.108, 3-(6-{[(1R)-1-cyclobutylethyl]amino}-7-[(trans-4-methylcyclohexyl)methyl]-8-[2-(4-methyl-1,2,5-oxadiazol-3-yl)pyrrolidin-1-yl]-7H-purin-2-yl)-1,2,4-oxadiazol-5(2H)-one] to `C[C@@H](Nc1nc(-c2noc(=O)[nH]2)nc2nc(N3CCC[C@H]3c3nnnn3C)n(C[C@H]3CC[C@H](C)CC3)c12)C1CCC1` [Example 11.110, 3-(6-{[(1R)-1-cyclobutylethyl]amino}-7-[(trans-4-methylcyclohexyl)methyl]-8-[(2S)-2-(1-methyl-1H-tetrazol-5-yl)pyrrolidin-1-yl]-7H-purin-2-yl)-1,2,4-oxadiazol-5(2H)-one], the IC50 rises from 1.6 nM to 6.76 nM (4.2-fold).

Going from `Cc1nn(C)cc1CNc1nc2nc(-c3noc(=O)[nH]3)nc(N[C@H](C)C3CCC3)c2n1C[C@H]1CC[C@H](C)CC1` [Example 11.109, 3-(6-{[(1R)-1-cyclobutylethyl]amin ο}-8-{[(1,3-dimethyl-1H-pyrazol-4-yl)methyl]amino} -7-[(trans-4-methylcyclohexyl)methyl]-7H-purin-2-yl)-1,2,4-oxadiazol-5(2H)-one] to `Cc1nonc1CNc1nc2nc(-c3noc(=O)[nH]3)nc(N[C@H](C)C3CCC3)c2n1C[C@H]1CC[C@H](C)CC1` [Example 11.111, 3-(6-{[(1R)-1-cyclobutylethyl]amino}-7-[(trans-4-methylcyclohexyl)methyl]-8-{[(4-methyl-1,2,5-oxadiazol-3-yl)methyl]amino}-7H-purin-2-yl)-1,2,4-oxadiazol-5(2H)-one], the IC50 falls from 55.6 nM to 6.34 nM (8.8-fold).

Going from `C[C@@H](Nc1nc(-c2noc(=O)[nH]2)nc2nc(NCc3c[nH]nc3-c3ccccc3)n(C[C@H]3CC[C@H](C)CC3)c12)C1CCC1` [Example 11.112, 3-(6-{[(1R)-1-cyclobutylethyl]amino}-7-[(trans-4-methylcyclohexyl)methyl]-8-{[(3-phenyl-1H-pyrazol-4-yl)methyl]amino}-7H-purin-2-yl)-1,2,4-oxadiazol-5(2H)-one] to `C[C@@H](Nc1nc(-c2noc(=O)[nH]2)nc2nc(N3CCCC3c3ccccc3)n(C[C@H]3CC[C@H](C)CC3)c12)C1CCC1` (stereo partly drawn) [Example 11.130, 3-[6-{[(1R)-1-cyclobutylethyl]amino}-7-[(trans-4-methylcyclohexyl)methyl]-8-(2-phenylpyrrolidin-1-yl)-7H-purin-2-yl]-1,2,4-oxadiazol-5(4H)-one], the IC50 falls from 215 nM to 2.05 nM (100-fold). The second is the more potent here.

`C[C@@H](Nc1nc(-c2noc(=O)[nH]2)nc2nc(N3CCC(C)(O)C3)n(C[C@H]3CC[C@H](C)CC3)c12)C1CCC1` (stereo partly drawn) [Example 11.113, 3-(6-{[(1R)-1-cyclobutylethyl]amino}-8-(3-hydroxy-3-methylpyrrolidin-1-yl)-7-[(trans-4-methylcyclohexyl)methyl]-7H-purin-2-yl)-1,2,4-oxadiazol-5(2H)-one] and `COC1CCN(c2nc3nc(-c4noc(=O)[nH]4)nc(N[C@H](C)C4CCC4)c3n2C[C@H]2CC[C@H](C)CC2)C1` (stereo partly drawn) [Example 11.114, 3-(6-{[(1R)-1-cyclobutylethyl]amino}-8-(3-methoxypyrrolidin-1-yl)-7-[(trans-4-methylcyclohexyl)methyl]-7H-purin-2-yl)-1,2,4-oxadiazol-5(2H)-one] are within 1.5-fold of each other in IC50: 57.7 nM for the first, 52.9 nM for the second.

Compared with `CCN(C)c1nc2nc(-c3noc(=O)[nH]3)nc(N[C@H](C)C3CCC3)c2n1C[C@H]1CC[C@H](C)CC1` [Example 11.115, 3-(6-{[(1R)-1-cyclobutylethyl]amino}-8-[ethyl(methyl)amino]-7-[(trans-4-methylcyclohexyl)methyl]-7H-purin-2-yl)-1,2,4-oxadiazol-5(2H)-one], `COCCN(C)c1nc2nc(-c3noc(=O)[nH]3)nc(N[C@H](C)C3CCC3)c2n1C[C@H]1CC[C@H](C)CC1` [Example 11.116, 3-(6-{[(1R)-1-cyclobutylethyl]amino}-8-[(2-methoxyethyl)(methyl)amino]-7-[(trans-4-methylcyclohexyl)methyl]-7H-purin-2-yl)-1,2,4-oxadiazol-5(2H)-one] is 2.6-fold higher in IC50: 8.13 nM for the first, 21 nM for the second.

First: C[C@@H](Nc1nc(-c2noc(=O)[nH]2)nc2nc(N3CCOCC3c3ccc(Cl)cc3)n(C[C@H]3CC[C@H](C)CC3)c12)C1CCC1 (stereo partly drawn) [Example 11.119, 3-{8-[3-(4-chlorophenyl)morpholin-4-yl]-6-{[(1R)-1-cyclobutylethyl]amino}-7-[(trans-4-methylcyclohexyl)methyl]-7H-purin-2-yl}-1,2,4-oxadiazol-5(4H)-one]
Second: C[C@@H](Nc1nc(-c2noc(=O)[nH]2)nc2nc(N3CCOC[C@H]3c3ccncc3)n(C[C@H]3CC[C@H](C)CC3)c12)C1CCC1 [Example 11.145, 3-(6-{[(1R)-1-cyclobutylethyl]amino}-7-[(trans-4-methylcyclohexyl)methyl]-8-[(3R)-3-pyridin-4-ylmorpholin-4-yl]-7H-purin-2-yl)-1,2,4-oxadiazol-5(4H)-one]
The IC50 of the first is 19-fold higher: 24.8 nM for the first, 1.31 nM for the second. The second is the more potent here.

`C[C@@H]1CN(C)C(=O)CN1c1nc2nc(-c3noc(=O)[nH]3)nc(N[C@H](C)C3CCC3)c2n1C[C@H]1CC[C@H](C)CC1` [Example 11.120, (5R)-4-[6-{[(1R)-1-cyclobutylethyl]amino}-7-[(trans-4-methylcyclohexyl)methyl]-2-(5-oxo-4,5-dihydro-1,2,4-oxadiazol-3-yl)-7H-purin-8-yl]-1,5-dimethylpiperazin-2-one] and `CC1CSCCN1c1nc2nc(-c3noc(=O)[nH]3)nc(N[C@H](C)C3CCC3)c2n1C[C@H]1CC[C@H](C)CC1` (stereo partly drawn) [Example 11.123, 3-[6-{[(1R)-1-cyclobutylethyl]amino}-7-[(trans-4-methylcyclohexyl)methyl]-8-(3-methylthiomorpholin-4-yl)-7H-purin-2-yl]-1,2,4-oxadiazol-5(2H)-one] are within 1.5-fold of each other in IC50: 5.57 nM for the first, 4.39 nM for the second.

Compared with `CC1CS(=O)(=O)CCN1c1nc2nc(-c3noc(=O)[nH]3)nc(N[C@H](C)C3CCC3)c2n1C[C@H]1CC[C@H](C)CC1` (stereo partly drawn) [Example 11.124, 3-[6-{[(1R)-1-cyclobutylethyl]amino}-7-[(trans-4-methylcyclohexyl)methyl]-8-(3-methyl-1,1-dioxidothiomorpholin-4-yl)-7H-purin-2-yl]-1,2,4-oxadiazol-5(2H)-one], `C[C@@H](Nc1nc(-c2noc(=O)[nH]2)nc2nc(N3CCCC3CS(C)(=O)=O)n(C[C@H]3CC[C@H](C)CC3)c12)C1CCC1` (stereo partly drawn) [Example 11.153, 3-(6-{[(1R)-1-cyclobutylethyl]amino}-7-[(trans-4-methylcyclohexyl)methyl]-8-{2-[(methylsulfonyl)methyl]pyrrolidin-1-yl}-7H-purin-2-yl)-1,2,4-oxadiazol-5(4H)-one] is 6.8-fold higher in IC50: 9.62 nM for the first, 65.6 nM for the second. The first is the more potent here.

`C[C@@H](Nc1nc(-c2noc(=O)[nH]2)nc2nc(N3CCOC4CC43)n(C[C@H]3CC[C@H](C)CC3)c12)C1CCC1` (stereo partly drawn) [Example 11.127, 3-[6-{[(1R)-1-cyclobutylethyl]amino}-7-[(trans-4-methylcyclohexyl)methyl]-8-(2-oxa-5-azabicyclo[4.1.0]hept-5-yl)-7H-purin-2-yl]-1,2,4-oxadiazol-5(4H)-one] and `C[C@@H]1OCCN(c2nc3nc(-c4noc(=O)[nH]4)nc(N[C@H](C)C4CCC4)c3n2C[C@H]2CC[C@H](C)CC2)[C@@H]1c1ccccc1` [Example 11.163, 3-(6-{[(1R)-1-cyclobutylethyl]amino}-7-[(trans-4-methylcyclohexyl)methyl]-8-[(2S,3R)-2-methyl-3-phenylmorpholin-4-yl]-7H-purin-2-yl)-1,2,4-oxadiazol-5(4H)-one] are within 1.5-fold of each other in IC50: 26.2 nM for the first, 21.2 nM for the second.

Compared with `C[C@@H]1COC[C@@H](C)N1c1nc2nc(-c3noc(=O)[nH]3)nc(N[C@H](C)C3CCC3)c2n1C[C@H]1CC[C@H](C)CC1` [Example 11.129, 3-(6-{[(1R)-1-cyclobutylethyl]amino}-8-[(3R,5R)-3,5-dimethylmorpholin-4-yl]-7-[(trans-4-methylcyclohexyl)methyl]-7H-purin-2-yl)-1,2,4-oxadiazol-5(4H)-one], `C[C@@H](Nc1nc(-c2noc(=O)[nH]2)nc2nc(N3CC4CC4C3C(F)(F)F)n(C[C@H]3CC[C@H](C)CC3)c12)C1CCC1` (stereo partly drawn) [Example 11.152, 3-(6-{[(1R)-1-cyclobutylethyl]amino}-7-[(trans-4-methylcyclohexyl)methyl]-8-[2-(trifluoromethyl)-3-azabicyclo[3.1.0]hex-3-yl]-7H-purin-2-yl)-1,2,4-oxadiazol-5(4H)-one] is 3.9-fold higher in IC50: 0.788 nM for the first, 3.09 nM for the second. The first is the more potent here.

`C[C@@H](Nc1nc(-c2n[nH]c(=O)o2)nc2nc(N3CCC[C@H]3C(F)(F)F)n(C[C@H]3CC[C@H](C)CC3)c12)C1CCC1` [Example 11.137, 5-(6-{[(1R)-1-cyclobutylethyl]amino}-7-[(trans-4-methylcyclohexyl)methyl]-8-[(2S)-2-(trifluoromethyl)pyrrolidin-1-yl]-7H-purin-2-yl)-1,3,4-oxadiazol-2(3H)-one] and `C[C@@H](Nc1nc(-c2noc(=O)[nH]2)nc2nc(N3CCOC[C@H]3c3ccccn3)n(C[C@H]3CC[C@H](C)CC3)c12)C1CCC1` [Example 11.142, 3-(6-{[(1R)-1-cyclobutylethyl]amino}-7-[(trans-4-methylcyclohexyl)methyl]-8-[(3R)-3-pyridin-2-ylmorpholin-4-yl]-7H-purin-2-yl)-1,2,4-oxadiazol-5(4H)-one] are within 1.5-fold of each other in IC50: 0.881 nM for the first, 0.774 nM for the second.
